For one compound, IC50 results are on record in patent publication US20080242716A1, “Ion Channel Modulators” (priority 2004, published 2008).

The assay deals with calcium channel (e.g., L-type, N-type, etc.) currents. Kind of assay: HEK assay, whole-cell voltage clamp in transiently transfected HEK-293T/17 cells. In kind it is cell-based. The note with it: whole-cell patch clamp, steady-state concentration-response. As to the method: HEK-293T/17 cells are transiently transfected in a similar manner as described in FuGENE 6 Package Insert Version 7, April 2002, Roche Applied Science, Indianapolis, Ind. The cells are plated at 2.5×10^5 cells in 2 mL in a 6-well plate in incubator for one night and achieve a 30˜40% confluence. In a small sterile tube, add sufficient serum-free medium as diluent for FuGENE Transfection Reagent (Roche Applied Science, Indianapolis, Ind.), to a total volume of 100 μL. Add 3 μL of FuGENE 6 Reagent directly into this medium. The mixture is tapped gently to mix. 2 μg of DNA solution (0.8-2.0 μg/μL) is added to the prediluted FuGENE 6 Reagent from above. The DNA/Fugene 6 mixture is gently pipeted to mix the contents and incubated for about 15 minutes at room temperature. The complex mixture is then added to the HEK-293T/17 cells, distributing it around the well, and swirled to ensure even dispersal. The cells are returned to the incubator for 24 hrs. The transfected cells are then replated at density 2.5×10^5 in a 35 mm dish with 5 glass coverslips and grow in low serum(1%) media for 24 hrs. Coverslips with isolated cells are then transferred into chamber and calcium channel (e.g., L-type, N-type, etc.) current or other currents for counter screening are recorded from the transiently transfected HBEK-293T/17 cells. […]
For orientation: Patch clamp records ionic current or voltage across a cell membrane.

The structures appear in SMILES notation.

One may read the IC50 as the concentration that inhibits the measured activity by half.

Regarding `Fc1ccc(Cc2nc(Cc3nc4ccccc4[nH]3)cn2-c2ccc(Cl)cc2)cc1` [Compound 2, 2-[1-(4-Chloro-phenyl)-2-(4-fluoro-benzyl)-1H-imidazol-4-ylmethyl]-1H-benzoimidazole], the IC50 stood at 252 nM.
